Assay results taken from publication PMC3537848 (Cancer research, 2012).
Where a chain is given by its changes, count along the chain named. pIC50: −log10 of the molar value.

Legend:
[1] = target: T1, Retinoid X receptor-α (RXRα) (Homo sapiens, UniProt P19793); experiment: radioligand competition with [3H]-9-cis-RA; assay type: binding
T1 sequence (P19793 223-462 limits assumed): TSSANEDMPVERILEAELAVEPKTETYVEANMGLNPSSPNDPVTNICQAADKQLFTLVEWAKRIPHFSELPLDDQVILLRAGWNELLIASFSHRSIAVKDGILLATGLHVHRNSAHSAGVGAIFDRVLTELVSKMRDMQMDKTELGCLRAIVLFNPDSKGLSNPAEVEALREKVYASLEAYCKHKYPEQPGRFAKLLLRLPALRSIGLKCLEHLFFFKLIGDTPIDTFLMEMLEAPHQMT

[2] = target: T2, Retinoid X receptor-α (RXRα) (Homo sapiens, UniProt P19793, R316E); experiment: Gal4 luciferase reporter in CV-1 cells, antagonism of CD3254; assay type: cell-based
T2 sequence (P19793 198-462 R316E): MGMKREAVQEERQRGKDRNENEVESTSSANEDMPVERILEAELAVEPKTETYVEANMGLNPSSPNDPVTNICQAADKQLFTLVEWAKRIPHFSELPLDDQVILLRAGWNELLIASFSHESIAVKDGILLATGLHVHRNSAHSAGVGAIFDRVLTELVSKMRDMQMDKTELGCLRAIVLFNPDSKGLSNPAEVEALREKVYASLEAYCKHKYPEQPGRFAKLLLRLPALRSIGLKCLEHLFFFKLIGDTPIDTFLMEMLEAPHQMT

[3] = target: T2, Retinoid X receptor-α (RXRα); experiment: Gal4 luciferase reporter in CV-1 cells; assay type: cell-based
[4] = target: T3, Retinoid X receptor-α (RXRα) (Homo sapiens, UniProt P19793); experiment: Gal4-RXRα-LBD luciferase reporter in CV-1 cells; assay type: cell-based
T3 sequence (P19793 198-462): T2 sequence (P19793 198-462 R316E) with E119R

| pIC50 [1] | SMILES | Gal4 luciferase reporter in CV-1 cells, antagonism of CD3254 [2] | Gal4 luciferase reporter in CV-1 cells (agonist) [3] | Gal4-RXRα-LBD luciferase reporter in CV-1 cells (agonist) [4] |
| --- | --- | --- | --- | --- |
| 5.02 | CC(C)=CCC/C(C)=C/Cc1c(O)c(O)cc2c(=O)c3c(O)c(CC=C(C)C)c(O)cc3oc12 [CF31, 1,3,6,7-tetrahydroxy-2-(3-methyl-2-butenyl)-5-(3,7-dimethyl-2,6-octadienyl)xanthone] | CD3254-induced reporter activity was potently inhibited by CF31 in a dose dependent manner (Fig. 2C) |  |  |
|  | Cc1cc2c(cc1-c1cc(/C=C/C(=O)O)ccc1O)C(C)(C)CCC2(C)C [CD3254] |  | CD3254 could still activate the RXRα/R316E mutant | CD3254 strongly induced Gal4-RXRα/LBD activity, which was comparable to that induced by 9-cis-RA |
